Laboratory results as given in US20260085067A1, “CYCLIC SULFONAMIDE RIBONUCLEOTIDE REDUCTASE (RNR) INHIBITORS AND USES THEREOF” (Boundless Bio, Inc., priority 2022, published 2026).

Assays:
RNR (RNR1:RNR2 1:1) = target: T1, RNR (RNR1:RNR2 1:1) (Homo sapiens, UniProt P23921); assay: RNR enzyme activity, rapid-fire mass spectrometry (RF/MS) assay; type: biochemical; conditions: [RNR] 50 nM, 1:1 RNR1:RNR2; CDP 5 μM; ATP 1 mM; 37° C., 45 min; compounds screened up to 50 μM
T1 sequence (P23921 1-792): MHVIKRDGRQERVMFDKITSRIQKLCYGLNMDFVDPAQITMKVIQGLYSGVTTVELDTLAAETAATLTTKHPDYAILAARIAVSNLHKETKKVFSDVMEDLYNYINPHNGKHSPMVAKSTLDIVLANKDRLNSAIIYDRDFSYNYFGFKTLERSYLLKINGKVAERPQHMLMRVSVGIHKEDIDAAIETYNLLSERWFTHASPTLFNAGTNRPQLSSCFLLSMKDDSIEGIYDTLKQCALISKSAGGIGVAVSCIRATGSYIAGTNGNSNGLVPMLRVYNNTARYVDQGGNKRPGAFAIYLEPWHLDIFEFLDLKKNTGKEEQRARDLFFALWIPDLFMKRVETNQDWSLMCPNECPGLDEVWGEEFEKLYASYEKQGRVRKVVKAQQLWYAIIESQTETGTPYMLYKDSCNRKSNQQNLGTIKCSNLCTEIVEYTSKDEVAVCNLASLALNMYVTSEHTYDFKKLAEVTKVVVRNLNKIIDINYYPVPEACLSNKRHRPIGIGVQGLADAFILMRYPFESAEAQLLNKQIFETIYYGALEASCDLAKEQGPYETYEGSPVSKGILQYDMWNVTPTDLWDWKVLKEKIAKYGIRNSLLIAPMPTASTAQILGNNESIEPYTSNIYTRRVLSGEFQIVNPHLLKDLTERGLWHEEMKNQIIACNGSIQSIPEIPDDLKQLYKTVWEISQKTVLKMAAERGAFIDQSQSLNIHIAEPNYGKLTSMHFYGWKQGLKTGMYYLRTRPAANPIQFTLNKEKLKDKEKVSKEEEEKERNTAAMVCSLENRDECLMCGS
Procedure: A rapid-fire mass spectrometry (RF/MS) assay was used to assess RNR enzyme activity using a 384 well plate and a robotic platform.
The plate layout included two validated reference compounds (Triapine (3-AP) and Hydroxyurea (HU)): • A dose response in duplicate; top concentration: 5 μM (3-AP) and 250 μM (HU), semi-log dilutions. • Spike wells in triplicate randomly spotted at four concentrations: • 250 μM, 100 μM, 30 μM and 2 μM for HU • 5 μM, 2 μM, 0.6 μM and 0.04 μM for 3-AP
First, the multidrop pipes were saturated for 30 minutes with enzymatic solution. Then 30 μL of Stop solution was distributed in column 24. Next, 15 μL of enzyme was distributed in column 1 to 24. Next, a pre-incubation step of 15 minutes at room temperature occurred, followed by distribution of 15 μL of substrate solution (column 1 to 24). Next, the plate was incubated for 45 minutes at 37° C. 30 μL of Stop solution was then distributed to columns 1 to 23.
The final parameters for the enzyme reactions were: • Incubation: 37° C., 45 min • [CDP]: 5 μM; [ATP]: 1 mM; [NADPH]: No • [RNR]final: 50 nM with 1:1 (RNR1:RNR2) ratio • Final volume: 30 μL • Stop solution: 6% HCOOH in water

[1] = test system: pCHK1 (S345) in Colo320 DM cells; assay: Alphalisa assay, detection of pCHK1 (S345) in Colo320 DM cells; type: cell-based, human; conditions: compound overnight (approximately 16 hours)
Procedure: Colo320 DM cells (ATCC #CCL-220, derived from human colorectal adenocarcinoma, Dukes' type C) were seeded on a […], cell culture treated assay plate at a density of 50,000 cells/well in 200 μL of RPMI-1640 media supplemented with 10% Fetal Bovine Serum and incubated at 37° C. overnight. The following day, test compound dilutions were added directly to the plated cells by a Tecan digital dispenser to a final DMSO concentration of <0.5%. and incubated at 37° C. overnight (approximately 16 hours). The following day all cell culture media was removed from the cells. 75 μL of 1×AlphaLisa lysis buffer was added to each well and plates were agitated on a shaker for 30 minutes at room temperature. The lysis of cells and detection of pCHK1 (S345) were performed with reagents contained within the AlphaLisa Sure Fire assay kit (Perkin Elmer #ALSU-PCHK1-A) according to the manufacturer's instructions. 10 μL of each lysate was then transferred to a white, 384-well assay plate (Perkin Elmer #6008280). 5 μL of Acceptor mix was then added to each well of lysate in the white, 384-well assay plate and incubated in the dark at room temperature for 60 minutes. 5 μL of Donor mix was then added to each well of the white, 384-well assay plate in subdued light and incubated at room temperature for 60 minutes. Plates were read on an Alpha Technology-compatible plate reader using standard AlphaLisa settings.

In the case of `Cc1ccc(F)c([C@@H](C)[C@@H](c2n[nH]c(=O)o2)N2CN(C3COC3)c3cc(Cl)ccc3S2(=O)=O)c1C` [Example 42, 5-((1S,2R)-1-(6-chloro-4-(oxetan-3-yl)-1,1-dioxido-3,4-dihydro-2H-benzo[e][1,2,4]thiadiazin-2-yl)-2-(6-fluoro-2,3-dimethylphenyl)propyl)-1,3,4-oxadiazol-2 (3H)-one], the IC50 (RNR (RNR1:RNR2 1:1)) is reported as < 20 nM and the IC50 ([1]; Homo sapiens, COLO 320DM) is reported as ≤ 1000 nM.

For `Cc1ccc(F)c([C@@H](C)[C@@H](c2n[nH]c(=O)o2)N2CN(C3CN(C)C3)c3cc(Cl)ccc3S2(=O)=O)c1C` [Example 65, 5-((1S,2R)-1-(6-chloro-4-(1-methylazetidin-3-yl)-1,1-dioxido-3,4-dihydro-2H-benzo[e][1,2,4]thiadiazin-2-yl)-2-(6-fluoro-2,3-dimethylphenyl)propyl)-1,3,4-oxadiazol-2 (3H)-one], the IC50 (RNR (RNR1:RNR2 1:1)) was < 20 nM and the IC50 ([1]; Homo sapiens, COLO 320DM) was ≤ 1000 nM.

`Cc1ccc(F)c([C@@H](C)[C@@H](c2n[nH]c(=O)o2)N2COc3cc(Cl)ccc3S2(=O)=O)c1C` [Example 7, 5-((1S,2R)-1-(6-chloro-1,1-dioxidobenzo[e][1,4,3]oxathiazin-2 (3H)-yl)-2-(6-fluoro-2,3-dimethylphenyl)propyl)-1,3,4-oxadiazol-2 (3H)-one] was tested, and the IC50 (RNR (RNR1:RNR2 1:1)) was 20 to 100 nM and the IC50 ([1]; Homo sapiens, COLO 320DM) was ≤ 1000 nM.

With `Cc1ccc(F)c([C@@H](C)[C@@H](c2n[nH]c(=O)o2)N2CCOc3c(ccc(Cl)c3C(C)O)S2(=O)=O)c1C` (single isomer, unassigned) [Example 29] the IC50 (RNR (RNR1:RNR2 1:1)) was 10000 to 100000 nM and the IC50 [1] was > 50000 nM.

For `Cc1ccc(F)c([C@@H](C)[C@@H](c2n[nH]c(=O)o2)N2CN(C(=O)C3CC3)c3cc(Cl)ccc3S2(=O)=O)c1C` [Example 46, 5-((1S,2R)-1-(6-chloro-4-(cyclopropanecarbonyl)-1,1-dioxido-3,4-dihydro-2H-benzo[e][1,2,4]thiadiazin-2-yl)-2-(6-fluoro-2,3-dimethylphenyl)propyl)-1,3,4-oxadiazol-2 (3H)-one], the IC50 (RNR (RNR1:RNR2 1:1)) was < 20 nM and the IC50 ([1]; Homo sapiens, COLO 320DM) was ≤ 1000 nM.

For `Cc1ccc(F)c([C@@H](C)[C@@H](c2n[nH]c(=O)o2)N2CN(C[C@H]3CCCO3)c3cc(Cl)ccc3S2(=O)=O)c1C` [Example 52, 5-((1S,2R)-1-(6-chloro-1,1-dioxido-4-(((R)-tetrahydrofuran-2-yl)methyl)-3,4-dihydro-2H-benzo[e][1,2,4]thiadiazin-2-yl)-2-(6-fluoro-2,3-dimethylphenyl)propyl)-1,3,4-oxadiazol-2 (3H)-one], the IC50 (RNR (RNR1:RNR2 1:1)) was < 20 nM and the IC50 ([1]; Homo sapiens, COLO 320DM) was ≤ 1000 nM.

`Cc1ccc(F)c([C@@H](C)[C@@H](c2n[nH]c(=O)o2)N2CN(S(C)(=O)=O)c3cc(Cl)ccc3S2(=O)=O)c1C` [Example 67, 5-((1S,2R)-1-(6-chloro-4-(methylsulfonyl)-1,1-dioxido-3,4-dihydro-2H-benzo[e][1,2,4]thiadiazin-2-yl)-2-(6-fluoro-2,3-dimethylphenyl)propyl)-1,3,4-oxadiazol-2 (3H)-one] showed an IC50 (RNR (RNR1:RNR2 1:1)) of 100 to 1000 nM and an IC50 ([1]; Homo sapiens, COLO 320DM) of 5000 to 10000 nM.

In the case of `Cc1ccc(F)c([C@@H](C)[C@@H](c2n[nH]c(=O)o2)N2CN(CCCN(C)C)c3cc(Cl)ccc3S2(=O)=O)c1C` [Example 34, 5-((1S,2R)-1-(6-chloro-4-(3-(dimethylamino)propyl)-1,1-dioxido-3,4-dihydro-2H-benzo[e][1,2,4]thiadiazin-2-yl)-2-(6-fluoro-2,3-dimethylphenyl)propyl)-1,3,4-oxadiazol-2 (3H)-one], the IC50 (RNR (RNR1:RNR2 1:1)) is reported as < 20 nM and the IC50 ([1]; Homo sapiens, COLO 320DM) is reported as 1000 to 5000 nM.

In the case of `Cc1ccc(F)c([C@H](C)[C@H](c2n[nH]c(=O)o2)N2CN(CC(O)CO)c3cc(Cl)ccc3S2(=O)=O)c1C` (mixture of isomers) [Example 85, 5-((1R,2S)-1-(6-chloro-4-(2,3-dihydroxypropyl)-1,1-dioxido-3,4-dihydro-2H-benzo[e][1,2,4]thiadiazin-2-yl)-2-(6-fluoro-2,3-dimethylphenyl)propyl)-1,3,4-oxadiazol-2 (3H)-one], the IC50 (RNR (RNR1:RNR2 1:1)) is reported as < 20 nM and the IC50 ([1]; Homo sapiens, COLO 320DM) is reported as 1000 to 5000 nM.

Compound `Cc1ccc(F)c([C@@H](C)[C@@H](c2n[nH]c(=O)o2)N2CCOc3cc(Cl)cnc3S2(=O)=O)c1C` [Example 16, 5-((1S,2R)-1-(7-chloro-1,1-dioxido-3,4-dihydro-2H-pyrido[3,2-b][1,4,5]oxathiazepin-2-yl)-2-(6-fluoro-2,3-dimethylphenyl)propyl)-1,3,4-oxadiazol-2 (3H)-one] has an IC50 (RNR (RNR1:RNR2 1:1)) of 20 to 100 nM and an IC50 ([1]; Homo sapiens, COLO 320DM) of 1000 to 5000 nM.

With `Cc1ccc(F)c([C@@H](C)[C@@H](c2n[nH]c(=O)o2)N2CN(C(C)C)c3cc(Cl)ccc3S2(=O)=O)c1C` [Example 4, 5-((1S,2R)-1-(6-chloro-4-isopropyl-1,1-dioxido-3,4-dihydro-2H-benzo[e][1,2,4]thiadiazin-2-yl)-2-(6-fluoro-2,3-dimethylphenyl)propyl)-1,3,4-oxadiazol-2 (3H)-one] the IC50 (RNR (RNR1:RNR2 1:1)) was 100 to 1000 nM and the IC50 ([1]; Homo sapiens, COLO 320DM) was 1000 to 5000 nM.

In the case of `Cc1ccc(F)c([C@@H](C)[C@@H](c2n[nH]c(=O)o2)N2CN(C3CCCOC3)c3cc(Cl)ccc3S2(=O)=O)c1C` (stereo in doubt) [Example 43, 5-((1S,2R)-1-(6-chloro-1,1-dioxido-4-((S)-tetrahydro-2H-pyran-3-yl)-3,4-dihydro-2H-benzo[e][1,2,4]thiadiazin-2-yl)-2-(6-fluoro-2,3-dimethylphenyl)propyl)-1,3,4-oxadiazol-2 (3H)-one], the IC50 (RNR (RNR1:RNR2 1:1)) is reported as < 20 nM and the IC50 ([1]; Homo sapiens, COLO 320DM) is reported as ≤ 1000 nM.

`Cc1ccc(F)c([C@@H](C)[C@@H](c2n[nH]c(=O)o2)N2CCOc3cc(Cl)ncc3S2(=O)=O)c1C` [Example 17, 5-((1S, 2R)-1-(7-chloro-1,1-dioxido-3,4-dihydro-2H-pyrido[4,3-b][1,4,5]oxathiazepin-2-yl)-2-(6-fluoro-2,3-dimethylphenyl)propyl)-1,3,4-oxadiazol-2 (3H)-one] was tested, and the IC50 (RNR (RNR1:RNR2 1:1)) was 1000 to 10000 nM and the IC50 ([1]; Homo sapiens, COLO 320DM) was > 50000 nM.

For `Cc1ccc(F)c([C@@H](C)[C@@H](c2n[nH]c(=O)o2)N2CN(CC(F)F)c3cc(Cl)ccc3S2(=O)=O)c1C` [Example 88, 5-((1S,2R)-1-(6-chloro-4-(2,2-difluoroethyl)-1,1-dioxido-3,4-dihydro-2H-benzo[e][1,2,4]thiadiazin-2-yl)-2-(6-fluoro-2,3-dimethylphenyl)propyl)-1,3,4-oxadiazol-2 (3H)-one], the IC50 (RNR (RNR1:RNR2 1:1)) was < 20 nM and the IC50 ([1]; Homo sapiens, COLO 320DM) was ≤ 1000 nM.

With `Cc1ccc(F)c([C@@H](C)[C@@H](c2n[nH]c(=O)o2)N2CN(CCO)c3nc(Cl)ccc3S2(=O)=O)c1C` [Example 73, 5-((1S,2R)-1-(6-chloro-4-(2-hydroxyethyl)-1,1-dioxido-3,4-dihydro-2H-pyrido[2,3-e][1,2,4]thiadiazin-2-yl)-2-(6-fluoro-2,3-dimethylphenyl)propyl)-1,3,4-oxadiazol-2 (3H)-one] the IC50 (RNR (RNR1:RNR2 1:1)) was < 20 nM and the IC50 ([1]; Homo sapiens, COLO 320DM) was ≤ 1000 nM.

With `Cc1ccc(F)c([C@@H](C)[C@@H](c2n[nH]c(=O)o2)N2CC(=O)N(C)c3cc(Cl)ccc3S2(=O)=O)c1C` [Example 14, 5-((1S,2R)-1-(7-chloro-5-methyl-1,1-dioxido-4-oxo-4,5-dihydrobenzo[f][1,2,5]thiadiazepin-2 (3H)-yl)-2-(6-fluoro-2,3-dimethylphenyl)propyl)-1,3,4-oxadiazol-2 (3H)-one] the IC50 (RNR (RNR1:RNR2 1:1)) was 20 to 100 nM and the IC50 ([1]; Homo sapiens, COLO 320DM) was 1000 to 5000 nM.
